According to patent US12304917B1, “Pleuromutilin derivative containing a thiazolo[5,4-c]pyridine side chain, and a preparation method and application thereof” (SHAANXI UNIVERSITY OF SCIENCE AND TECHNOLOGY, priority 2024, dated 2025):
In brackets after ≈: the same amount, converted by molar mass.

How the values were obtained:
physchem = settings: thermodynamic from solid
[1] = system: Methicillin-resistant S. aureus ATCC 33591; test: MIC by broth microdilution; settings: Staphylococcus aureus, ATCC33591|MRSA, 24 h, read-out: Minimum inhibitory concentration MRSA^b
[2] = system: Methicillin-resistant S. aureus ATCC 43300; test: MIC by broth microdilution; settings: Staphylococcus aureus, ATCC43300|MRSA, 24 h, read-out: Minimum inhibitory concentration MRSA^c
S. aureus ATCC 29213 = test: MIC by broth microdilution; settings: Staphylococcus aureus, ATCC29213, 24 h, read-out: Minimum inhibitory concentration S.a.^d
[3] = system: Methicillin-resistant S. epidermidis ATCC 51625; test: MIC by broth microdilution; settings: Staphylococcus epidermidis, ATCC51625|MRSE, 24 h, read-out: Minimum inhibitory concentration MRSE^e
A. baumannii ATCC 19606 = test: MIC by broth microdilution; settings: Acinetobacter baumannii, ATCC19606, 24 h, read-out: Minimum inhibitory concentration A.b.^f
S. enterica ATCC14028 = test: MIC by broth microdilution; settings: Salmonella enterica, ATCC14028, 24 h, read-out: Minimum inhibitory concentration S.e.^g
E. coli ATCC 25922 = test: MIC by broth microdilution; settings: Escherichia coli, ATCC25922, 24 h, read-out: Minimum inhibitory concentration E.c.^h
E. coli CMCC 44103 = test: MIC by broth microdilution; settings: Escherichia coli, CMCC44103, 24 h, read-out: Minimum inhibitory concentration E.c.^i
HepG2 cells = settings: human, 24 h
HEK293 cells = settings: human, 24 h
A549 cells = settings: human, 24 h

SMILES | solubility (physchem) | MIC [1] | MIC [2] | MIC (S. aureus ATCC 29213) | MIC [3] | MIC (A. baumannii ATCC 19606) | MIC (S. enterica ATCC14028) | MIC (E. coli ATCC 25922) | MIC (E. coli CMCC 44103) | CC50 (HepG2 cells) | CC50 (HEK293 cells) | CC50 (A549 cells)
C=C[C@]1(C)C[C@@H](OC(=O)CSc2nc3cc[n+](Cc4ccc(-c5ccccc5)cc4)cc3s2)[C@]2(C)[C@H](C)CC[C@]3(CCC(=O)[C@H]32)[C@@H](C)[C@@H]1O [Compound I-10, 5-([1,1′-biphenyl]-4-ylmethyl)-2-((2-(((3aR,4R,5R,7S,8S,9R,9aS,12R)-8-hydroxy-4,7,9,12-tetramethyl-3-oxo-7-vinyldecahydro-4,9a-propancyclopenta[8]cyclo-5-yl)oxy)-2-oxoethyl)thio)thiazolo[5,4-c]pyridin-5-ium] | 513 µM | 16 µg/mL | 64 µg/mL | 8 µg/mL | 32 µg/mL | 8 µg/mL | 16 µg/mL | 16 µg/mL | 32 µg/mL |  |  | 
C=C[C@]1(C)C[C@@H](OC(=O)CSc2nc3cc[n+](Cc4ccc(Cl)cc4)cc3s2)[C@]2(C)[C@H](C)CC[C@]3(CCC(=O)[C@H]32)[C@@H](C)[C@@H]1O [Compound I-5, 5-(4-chlorobenzyl)-2-((2-(((3aR,4R,5R,7S,8S,9R,9aS,12R)-8-hydroxy-4,7,9,12-tetramethyl-3-oxo-7-vinyldecahydro-4,9a-propancyclopenta[8]cyclo-5-yl)oxy)-2-oxoethyl)thio)thiazolo[5,4-c]pyridin-5-ium] | 623 µM | 32 µg/mL | 32 µg/mL | 8 µg/mL | 32 µg/mL | 32 µg/mL | 16 µg/mL | 32 µg/mL | 32 µg/mL |  |  | 
C=C[C@]1(C)C[C@@H](OC(=O)CS[C@@H]2C[C@H]3CC[C@@H](C2)N3C)[C@]2(C)[C@H](C)CC[C@]3(CCC(=O)[C@H]32)[C@@H](C)[C@@H]1O [Retapamulin, retapamulin, reference compound] |  |  |  | 4 µg/mL (≈ 7.73 µM) |  | 4 µg/mL (≈ 7.73 µM) | 128 µg/mL (≈ 247 µM) | 32 µg/mL (≈ 61.8 µM) | 32 µg/mL (≈ 61.8 µM) | 61.1 µM | 57.5 µM | 71.5 µM
C=C[C@]1(C)C[C@@H](OC(=O)CSc2nc3cc[n+](Cc4cc(C)cc(C)c4)cc3s2)[C@]2(C)[C@H](C)CC[C@]3(CCC(=O)[C@H]32)[C@@H](C)[C@@H]1O [Compound I-12, 5-(3,5-dimethylbenzyl)-2-((2-(((3aR,4R,5R,7S,8S,9R,9aS,12R)-8-hydroxy-4,7,9,12-tetramethyl-3-oxo-7-vinyldecahydro-4,9a-propancyclopenta[8]cyclo-5-yl)oxy)-2-oxoethyl)thio)thiazolo[5,4-c]pyridin-5-ium] | 549 µM | 64 µg/mL | 64 µg/mL | 16 µg/mL | 32 µg/mL | 32 µg/mL | 64 µg/mL | 64 µg/mL | 32 µg/mL |  |  | 
C=C[C@]1(C)C[C@@H](OC(=O)CSc2nc3cc[n+](Cc4ccc(C(C)(C)C)cc4)cc3s2)[C@]2(C)[C@H](C)CC[C@]3(CCC(=O)[C@H]32)[C@@H](C)[C@@H]1O [Compound I-11, 5-(4-(tert-butyl)benzyl)-2-((2-(((3aR,4R,5R,7S,8S,9R,9aS,12R)-8-hydroxy-4,7,9,12-tetramethyl-3-oxo-7-vinyldecahydro-4,9a-propancyclopenta[8]cyclo-5-yl)oxy)-2-oxoethyl)thio)thiazolo[5,4-c]pyridin-5-ium] |  | 64 µg/mL | 16 µg/mL | 32 µg/mL | 32 µg/mL | 8 µg/mL | 32 µg/mL | 32 µg/mL | 16 µg/mL |  |  | 
C=C[C@]1(C)C[C@@H](OC(=O)CSc2nc3cc[n+](Cc4ccc(F)cc4)cc3s2)[C@]2(C)[C@H](C)CC[C@]3(CCC(=O)[C@H]32)[C@@H](C)[C@@H]1O [Compound I-3, 5-(4-fluorobenzyl)-2-((2-(((3aR,4R,5R,7S,8S,9R,9aS,12R)-8-hydroxy-4,7,9,12-tetramethyl-3-oxo-7-vinyldecahydro-4,9a-propancyclopenta[8]cyclo-5-yl)oxy)-2-oxoethyl)thio)thiazolo[5,4-c]pyridin-5-ium] | 561 µM | 32 µg/mL | 16 µg/mL | 16 µg/mL | 8 µg/mL | 32 µg/mL | 32 µg/mL | 8 µg/mL | 16 µg/mL |  |  | 
C=C[C@]1(C)C[C@@H](OC(=O)CSc2nc3cc[n+](Cc4cc(OC)cc(OC)c4)cc3s2)[C@]2(C)[C@H](C)CC[C@]3(CCC(=O)[C@H]32)[C@@H](C)[C@@H]1O [Compound I-14, 5-(3,5-dimethoxybenzyl)-2-((2-(((3aR,4R,5R,7S,8S,9R,9aS,12R)-8-hydroxy-4,7,9,12-tetramethyl-3-oxo-7-vinyldecahydro-4,9a-propancyclopenta[8]cyclo-5-yl)oxy)-2-oxoethyl)thio)thiazolo[5,4-c]pyridin-5-ium] | 126 µM | 32 µg/mL | 32 µg/mL | 64 µg/mL | 64 µg/mL | 32 µg/mL | 64 µg/mL | 32 µg/mL | 64 µg/mL |  |  | 
C=C[C@]1(C)C[C@@H](OC(=O)CSc2nc3cc[n+](Cc4cc(F)ccc4C#N)cc3s2)[C@]2(C)[C@H](C)CC[C@]3(CCC(=O)[C@H]32)[C@@H](C)[C@@H]1O [Compound I-13, 5-(2-cyano-5-fluorobenzyl)-2-((2-(((3aR,4R,5R,7S,8S,9R,9aS,12R)-8-hydroxy-4,7,9,12-tetramethyl-3-oxo-7-vinyldecahydro-4,9a-propancyclopenta[8]cyclo-5-yl)oxy)-2-oxoethyl)thio)thiazolo[5,4-c]pyridin-5-ium] | 231 µM | 32 µg/mL | 64 µg/mL | 64 µg/mL | 32 µg/mL | 64 µg/mL | 64 µg/mL | 64 µg/mL | 32 µg/mL |  |  | 
C=C[C@]1(C)C[C@@H](OC(=O)CSCCN(CC)CC)[C@]2(C)[C@H](C)CC[C@]3(CCC(=O)[C@H]32)[C@@H](C)[C@@H]1O [Tiamulin, tiamulin, reference compound] | 259 µM (≈ 128 µg/mL) |  |  |  |  |  |  |  |  |  |  | 
C=C[C@]1(C)C[C@@H](OC(=O)CSc2nc3cc[n+](Cc4ccc(Br)cc4)cc3s2)[C@]2(C)[C@H](C)CC[C@]3(CCC(=O)[C@H]32)[C@@H](C)[C@@H]1O [Compound I-1, 5-(4-bromobenzyl)-2-((2-(((3aR,4R,5R,7S,8S,9R,9aS,12R)-8-hydroxy-4,7,9,12-tetramethyl-3-oxo-7-vinyldecahydro-4,9a-propancyclopenta[8]cyclo-5-yl)oxy)-2-oxoethyl)thio)thiazolo[5,4-c]pyridin-5-ium] | 450 µM | 32 µg/mL | 16 µg/mL | 16 µg/mL | 8 µg/mL | 16 µg/mL | 32 µg/mL | 32 µg/mL | 32 µg/mL |  |  | 
C=C[C@]1(C)C[C@@H](OC(=O)CSc2nc3cc[n+](Cc4ccc(OC)cc4)cc3s2)[C@]2(C)[C@H](C)CC[C@]3(CCC(=O)[C@H]32)[C@@H](C)[C@@H]1O [Compound I-4, 5-(4-methoxybenzyl)-2-((2-(((3aR,4R,5R,7S,8S,9R,9aS,12R)-8-hydroxy-4,7,9,12-tetramethyl-3-oxo-7-vinyldecahydro-4,9a-propancyclopenta[8]cyclo-5-yl)oxy)-2-oxoethyl)thio)thiazolo[5,4-c]pyridin-5-ium] | 247 µM | 32 µg/mL | 8 µg/mL | 16 µg/mL | 64 µg/mL | 32 µg/mL | 32 µg/mL | 16 µg/mL | 8 µg/mL |  |  | 
C=C[C@]1(C)C[C@@H](OC(=O)CSc2nc3cc[n+](Cc4cc(F)c(F)cc4F)cc3s2)[C@]2(C)[C@H](C)CC[C@]3(CCC(=O)[C@H]32)[C@@H](C)[C@@H]1O [Compound I-7, 5-(2,4,5-trifluorobenzyl)-2-((2-(((3aR,4R,5R,7S,8S,9R,9aS,12R)-8-hydroxy-4,7,9,12-tetramethyl-3-oxo-7-vinyldecahydro-4,9a-propancyclopenta[8]cyclo-5-yl)oxy)-2-oxoethyl)thio)thiazolo[5,4-c]pyridin-5-ium] | 656 µM | 128 µg/mL | 64 µg/mL | 64 µg/mL | 64 µg/mL | 128 µg/mL | 64 µg/mL | 128 µg/mL | 64 µg/mL |  |  | 
C=C[C@]1(C)C[C@@H](OC(=O)CSc2nc3cc[n+](Cc4ccc(C(F)(F)F)cc4)cc3s2)[C@]2(C)[C@H](C)CC[C@]3(CCC(=O)[C@H]32)[C@@H](C)[C@@H]1O [Compound I-2, 5-(4-trifluoromethyl)-2-((2-(((3aR,4R,5R,7S,8S,9R,9aS,12R)-8-hydroxy-4,7,9,12-tetramethyl-3-oxo-7-vinyldecahydro-4,9a-propancyclopenta[8]cyclo-5-yl)oxy)-2-oxoethyl)thio)thiazolo[5,4-c]pyridin-5-ium] | 327 µM | 32 µg/mL | 16 µg/mL | 8 µg/mL | 16 µg/mL | 32 µg/mL | 8 µg/mL | 8 µg/mL | 16 µg/mL |  |  | 
